# Columns and labels:
# [1] = system: mitochondria, all cell lines including GCGR-NS9FB_B; test: Mitotracker stain intensity in cell painting assay; type: cell-based, human; settings: compared with Peptide 15 control
# Description: Figure S4 – Network analysis (STRING) showing protein interactions resulting from treatment with […]
# 2nd shell) <10. Top ranked Gene Ontology (GO terms) for biological processes is listed (top right) with Log[False Discovery Rate] indicated.
# High Content Phenotypic Screening assays
# Cell lines (glioma stem cell lines and normal foetal neural stem cells) were seeded on laminin (10 µg/mL) coated 384-well plates (Greiner Bio-One, 781091) at 1,000 cells/well and incubated overnight at 37 °C and 5% CO2. Aqueous peptide solutions (10 mM) were further diluted to 1 mM in water containing 10 % glycerol and 0.01 % TX-100. […]
# BSA/PBS. […] The data was then analyzed using a custom CellProfiler software pipeline using the University of Edinburgh high performance computing cluster. Dose response plots were calculated using HC StratomineR (corelifeanalytics.com). Nuclei count data was analyzed separately to generate cell survival metrics (normalized to aqueous glycerol/TX -100 control).
# Dose response curves were fitted and IC50 values calculated using Prism GraphPad (graphpad.com). […]
# Figure S5 – The CellProfiler-derived feature “MedianNucleiIntensityMADIntensityW5”, reading out mitotracker stain intensity observed in cell nuclei after treatment with the Peptide 2 nullomer (blue) and Peptide 15 (control). […]
# [2] = system: Met, ERBB2, CCND1, PTEN, PARP1, GSK3B; test: RPPA with STRING network analysis; type: cell-based, human; settings: peptide at 3 μM
# Description: growth and stemness was further supported by the addition of laminin extracellular matrix (Cultrex 3446-005-01, 4-10 mg/mL) to the growth media and to create pre-coated flasks/384w plates. Cells were cultured in T75 cm2 flasks and passaged as follows: Glioma stem cells generally grow slowly (~60hrs doubling time, excepting GCGR-E57 cells ~24hrs) and lag phase was exacerbated by sparse seeding. Cell confluence is generally ~80 -90% prior to passaging, whereby the culture media was aspirated, the cells washed (PBS) and Accutase solution (Sigma A6964, 1 mL) was added to detach the cells, which were then incubated at 37 °C for <5 minutes. Cells were resuspended in media and centrifuged for 3 minutes at 300 × g. Resuspended cells were typically split 1:5, 1:8 (GCGR-E57 cells) and 1:2, 1:4 for the remainder of cell lines, depending on requirements . Cells were passaged every 4-7 days to maintain health and growth and discarded after 3 months, whereupon a fresh batch of cells […]
# Culture media was aspirated and cells washed with wash media. […] A 10 μL sample of the cell suspension was pipetted onto the reading surface of a DeNovix CellDrop automated cell counter and the reading was used to dilute the suspension in complete media to 250,000 cells/mL. […]
# The cell pellet preparation was performed on ice. […] The supernatant was aspirated, and the pellets were stored at -80 °C until ready for RPPA. […]
substance,measurement,setting,value
H-RRRRRCQWW-NH2 [Peptide 2],mitotracker stain intensity in cell nuclei (MedianNucleiIntensityMADIntensityW5),[1],reduce mitotracker intensity in a dose dependent manner
same,mitotracker stain intensity in cells (MedianCellsIntensityMeanIntensityW5),[1],reduce mitotracker intensity in a dose dependent manner
same,"proteins with decreased expression (RPPA, STRING network analysis)",[2],"PTEN, PARP1, GSK3B"
same,"proteins with increased expression (RPPA, STRING network analysis)",[2],"Met, ERBB2, CCND1"

# Reference: publication PMC11865978, “Cellular Activity of CQWW Nullomer-Derived Peptides” (ACS Omega, 2025)
